Where two headings read alike, the source gives them in different places. Blank lines part the entries; values can stand above or below the compound they belong to.
Experiments:
[1] = Estimated contribution of active metabolites to efficacy of seltorexant; conditions: active metabolite
clinical [2] = conditions: both, human, plasma, % fu, fraction unbound (mean (SD)), Day 1, 2 h
Experimental: (§1) Participants entered the study site on the morning of Day 1 and remained there until after collection of the 96 hours PK sample on Day 5. […] In addition, blood samples for determination of the plasma protein binding (PPB) were collected.
(§2) For all cohorts, 2-hours fraction unbound values were used to derive the unbound plasma concentrations and these unbound concentrations were used to derive unbound PK parameters.

plasma protein = assay: clinical; conditions: Day 1, 2 h
Experimental: as §1, §2

clinical [3] = conditions: both, human, in vivo
Text: (§3) Participants were screened for eligibility for study entry. The diagnosis of hepatic impairment was based on medical history, a Child-Pugh Clinical Assessment Score of 5 to 6 (Grade A, mild hepatic impairment), 7 to 9 (Grade B, moderate hepatic impairment), and 10 to 15 (Grade C, severe hepatic impairment), and the presence of physical signs (liver firmness to palpitation, splenic enlargement, spider angioma, palmar erythema, parotid hypertrophy, testicular atrophy, or gynecomastia) or other modalities (computed tomography, ultrasound, magnetic resonance imaging, radionuclide liver/spleen scan or abdominal laparoscopy, or liver biopsy). The underlying disease leading to hepatic impairment was documented (e.g., hepatitis B, hepatitis C, alcoholic steatohepatitis, nonalcoholic fatty liver disease [hereditary/metabolic], or other). Hepatic encephalopathy grading was done by the Principal Investigator. The individual components of the Child-Pugh Clinical Assessment Score were documented. Participants with liver transplant were excluded.
(§4) The clinical study of Example 1 consisted of a screening phase (within 21 days before study intervention administration); an open-label treatment phase (Day 1 to Day 5) including the end-of-study (EOS) or withdrawal assessments (performed on Day 5 or upon early withdrawal). The study duration for each participant was approximately 4 weeks from screening (Day-21 to Day-1) to EOS assessments.
(§5) Healthy men and women between 18 and 79 years of age, inclusive; with a body mass index (BMI) between 18 and 38 kg/m^2, inclusive, and a body weight of not less than 50 kg were enrolled in the study according to their hepatic function. The degree of hepatic impairment was based on Child Pugh's classification. Using this classification, participants were grouped on the basis of 2 clinical features (hepatic encephalopathy and ascites) and 3 laboratory-based parameters (albumin, bilirubin, and prothrombin time).
(§6) The study included 24 human patients divided into 3 different cohorts: • Cohort 1:8 healthy participants with normal hepatic function and no evidence of liver damage and no evidence of liver damage, • Cohort 2:8 participants with mild hepatic impairment (having a Child-Pugh score of 5 to 6), and • Cohort 3:8 participants with moderate hepatic impairment (Child-Pugh score of 7 to 9).
(§7) Based on hepatic impairment classified during screening, 8 participants with mild hepatic impairment (Cohort 2) and 8 participants with moderate hepatic impairment (Cohort 3) were enrolled. After 8 participants each in Cohort 2 and Cohort 3 had completed study related procedures including the 96 hours PK sample, participants with normal hepatic function (Cohort 1) were enrolled. A group matching procedure was used to demographically match healthy participants having normal hepatic function with respect to sex, age, and weight to the participants enrolled in Cohort 2 and Cohort 3. […] Participants in the control group (Cohort 1) who tested positive for Hepatitis B surface antigen (HbsAg) or Hepatitis C antibodies were not permitted in the study.
(§8) In the normal hepatic function group (Cohort 1), at least 3 participants with an individual value above and at least 3 participants with an individual value below the mean age/mean body weight values of the combined mild (Cohort 2) and moderate (Cohort 3) hepatic impairment groups were enrolled. Two to 4 females were enrolled in each of the cohorts.
(§9) Participants remained in supine position from the predose assessments until 4-hour postdose but were allowed short upright stints for pressing needs (e.g., bathroom visits) and during consumption of meal.

[4] = for mean AUC∞ compared to normal hepatic function / mean Cmax compared to normal hepatic function / mean Cmax,unbound compared to normal hepatic function: arithmetic means
Text: as §3, §4, §5, §6, §7, §8, §9

[5] = 10 mg, Cohort 3 moderate hepatic impairment
[6] = 20 mg, Cohort 1 normal hepatic function
[7] = 20 mg, Cohort 2 mild hepatic impairment
[8] = Cohort 1 normal hepatic function
[9] = Cohort 2 mild hepatic impairment
[10] = Cohort 3 moderate hepatic impairment
[11] = 10 mg, AUClast, geometric mean, Cohort 3 (Test) moderate hepatic impairment, 10 mg dose normalized to 20 mg, total
[12] = 10 mg, AUClast, geometric mean, Cohort 3 (Test) moderate hepatic impairment, 10 mg dose normalized to 20 mg, unbound
[13] = 10 mg, AUC∞ (mean (SD)), Cohort 3 moderate hepatic impairment, 10 mg dose normalized to 20 mg, total in plasma
[14] = 10 mg, AUC∞, geometric mean, Cohort 3 (Test) moderate hepatic impairment, 10 mg dose normalized to 20 mg, total
[15] = 10 mg, AUC∞, geometric mean, Cohort 3 (Test) moderate hepatic impairment, 10 mg dose normalized to 20 mg, unbound
[16] = 10 mg, Cmax, geometric mean, Cohort 3 (Test) moderate hepatic impairment, 10 mg dose normalized to 20 mg, total
[17] = 10 mg, Cmax, geometric mean, Cohort 3 (Test) moderate hepatic impairment, 10 mg dose normalized to 20 mg, unbound
[18] = 10 mg, […], Cohort 3 moderate hepatic impairment, 10 mg dose normalized to 20 mg, total in plasma
[19] = 20 mg, AUClast, geometric mean, Cohort 1 (Reference) normal hepatic function, total
[20] = 20 mg, AUClast, geometric mean, Cohort 1 (Reference) normal hepatic function, unbound
[21] = 20 mg, AUClast, geometric mean, Cohort 2 (Test) mild hepatic impairment, total
[22] = 20 mg, AUClast, geometric mean, Cohort 2 (Test) mild hepatic impairment, unbound
[23] = 20 mg, AUC∞, geometric mean, Cohort 1 (Reference) normal hepatic function, total
[24] = 20 mg, AUC∞, geometric mean, Cohort 1 (Reference) normal hepatic function, unbound
[25] = 20 mg, AUC∞, geometric mean, Cohort 2 (Test) mild hepatic impairment, total
[26] = 20 mg, AUC∞, geometric mean, Cohort 2 (Test) mild hepatic impairment, unbound
[27] = 20 mg, Cmax, geometric mean, Cohort 1 (Reference) normal hepatic function, total
[28] = 20 mg, Cmax, geometric mean, Cohort 1 (Reference) normal hepatic function, unbound
[29] = 20 mg, Cmax, geometric mean, Cohort 2 (Test) mild hepatic impairment, total
[30] = 20 mg, Cmax, geometric mean, Cohort 2 (Test) mild hepatic impairment, unbound
[31] = dose normalized moderate hepatic impairment vs normal, total
[32] = dose normalized moderate hepatic impairment vs normal, unbound
[33] = mild hepatic impairment vs normal, total
[34] = mild hepatic impairment vs normal, unbound

fraction unbound at 2 h (clinical [2]; [5]): 0.0901 | fraction unbound at 2 h (clinical [2]; [6]): 0.04 | fraction unbound at 2 h (clinical [2]; [7]): 0.0568 | % fb (mean (SD)) (plasma protein; [8]): 96.0 (1.43) % | % fb (mean (SD)) (plasma protein; [9]): 94.3 (3.95) % | % fb (mean (SD)) (plasma protein; [10]): 91.0 (3.14) % | AUC(0-t) (clinical [3]; [11]): 620 ng·h/mL | AUC(0-t) (clinical [3]; [12]): 53 ng·h/mL | AUC(0-inf) (clinical [3]; [13]): 683 ng·h/mL | AUC(0-inf) (clinical [3]; [14]): 674 ng·h/mL | AUC(0-inf) (clinical [3]; [15]): 57.6 ng·h/mL | Cmax (clinical [3]; [16]): 41.8 ng/mL | Cmax (clinical [3]; [17]): 3.57 ng/mL | AUC(0-t) (clinical [3]; [18]): 631 ng·h/mL | Cmax (clinical [3]; [18]): 43 ng/mL | AUC(0-t) (clinical [3]; [19]): 778 ng·h/mL | AUC(0-t) (clinical [3]; [20]): 29 ng·h/mL | AUC(0-t) (clinical [3]; [21]): 783 ng·h/mL | AUC(0-t) (clinical [3]; [22]): 36.3 ng·h/mL | AUC(0-inf) (clinical [3]; [23]): 812 ng·h/mL | AUC(0-inf) (clinical [3]; [24]): 30.3 ng·h/mL | AUC(0-inf) (clinical [3]; [25]): 807 ng·h/mL | AUC(0-inf) (clinical [3]; [26]): 37.4 ng·h/mL | Cmax (clinical [3]; [27]): 64.6 ng/mL | Cmax (clinical [3]; [28]): 2.41 ng/mL | Cmax (clinical [3]; [29]): 50 ng/mL | Cmax (clinical [3]; [30]): 2.32 ng/mL | AUC(0-inf) (clinical [3]; po, 10 mg): 342 ng·h/mL | AUC(0-t) (clinical [3]; po, 10 mg): 315 ng·h/mL | Cmax (clinical [3]; po, 10 mg): 21.5 ng/mL | Tmax (clinical [3]; po, 10 mg): 2.5 h | half-life (clinical [3]; po, 10 mg): 10.2 h | AUC(0-inf) (clinical [3]; po, 20 mg): 851 ng·h/mL | AUC(0-t) (clinical [3]; po, 20 mg): 827 ng·h/mL | Cmax (clinical [3]; po, 20 mg): 51.5 ng/mL | Tmax (clinical [3]; po, 20 mg): 2 h | half-life (clinical [3]; po, 20 mg): 13.4 h | mean AUC∞ compared to normal hepatic function [4, 31]: 0.74 fold | mean Cmax compared to normal hepatic function [4, 31]: 0.62 fold | AUC∞ compared to normal hepatic function, based on GMR [4, 31]: ~0.83 fold | AUClast,unbound compared to normal hepatic function, based on GMR [4, 32]: ~1.82 fold | Cmax,unbound compared to normal hepatic function, based on GMR [4, 32]: ~1.48 fold | mean AUC∞ compared to normal hepatic function [4, 33]: comparable | mean Cmax compared to normal hepatic function [4, 33]: 0.75 fold | AUClast,unbound compared to normal hepatic function, based on GMR [4, 34]: ~1.25 fold | Cmax,unbound compared to normal hepatic function, based on GMR [4, 34]: 0.96 fold
Structure (SMILES): Cc1nc(N2CC3CN(C(=O)c4c(F)cccc4-n4nccn4)CC3C2)nc(C)c1O (stereo not shown) [M16]
contribution to efficacy of seltorexant (activity) [1]: < 4%

fraction unbound at 2 h (clinical [2]; [5]): 0.114 | fraction unbound at 2 h (clinical [2]; [6]): 0.0545 | fraction unbound at 2 h (clinical [2]; [7]): 0.0707 | % fb (mean (SD)) (plasma protein; [8]): 94.6 (1.91) % | % fb (mean (SD)) (plasma protein; [9]): 92.9 (4.58) % | % fb (mean (SD)) (plasma protein; [10]): 88.6 (3.84) % | AUC(0-t) (clinical [3]; [11]): 2380 ng·h/mL | AUC(0-t) (clinical [3]; [12]): 258 ng·h/mL | AUC(0-inf) (clinical [3]; [13]): 2580 ng·h/mL | AUC(0-inf) (clinical [3]; [14]): 2400 ng·h/mL | AUC(0-inf) (clinical [3]; [15]): 262 ng·h/mL | Cmax (clinical [3]; [16]): 253 ng/mL | Cmax (clinical [3]; [17]): 27.5 ng/mL | AUC(0-t) (clinical [3]; [18]): 2550 ng·h/mL | Cmax (clinical [3]; [18]): 261 ng/mL | AUC(0-t) (clinical [3]; [19]): 2310 ng·h/mL | AUC(0-t) (clinical [3]; [20]): 118 ng·h/mL | AUC(0-t) (clinical [3]; [21]): 3950 ng·h/mL | AUC(0-t) (clinical [3]; [22]): 234 ng·h/mL | AUC(0-inf) (clinical [3]; [23]): 2320 ng·h/mL | AUC(0-inf) (clinical [3]; [24]): 119 ng·h/mL | AUC(0-inf) (clinical [3]; [25]): 3980 ng·h/mL | AUC(0-inf) (clinical [3]; [26]): 236 ng·h/mL | Cmax (clinical [3]; [27]): 320 ng/mL | Cmax (clinical [3]; [28]): 16.3 ng/mL | Cmax (clinical [3]; [29]): 355 ng/mL | Cmax (clinical [3]; [30]): 21 ng/mL | AUC(0-t) (clinical [3]; po, 10 mg): 1280 ng·h/mL | Cmax (clinical [3]; po, 10 mg): 131 ng/mL | Tmax (clinical [3]; po, 10 mg): 2.25 h | half-life (clinical [3]; po, 10 mg): 4.07 h | AUC(0-inf) (clinical [3]; po, 20 mg): 4860 ng·h/mL | AUC(0-t) (clinical [3]; po, 20 mg): 4830 ng·h/mL | Cmax (clinical [3]; po, 20 mg): 368 ng/mL | half-life (clinical [3]; po, 20 mg): 3.44 h | mean AUC∞ compared to normal hepatic function [4, 31]: comparable | mean Cmax compared to normal hepatic function [4, 31]: 0.78 fold | mean Cmax,unbound compared to normal hepatic function [4, 32]: 1.71 fold | Cmax compared to normal hepatic function, based on GMR [4, 31]: 0.79 fold | mean AUC∞ compared to normal hepatic function [4, 33]: 1.80 fold | mean Cmax compared to normal hepatic function [4, 33]: comparable | mean Cmax,unbound compared to normal hepatic function [4, 34]: 1.46 fold | Cmax compared to normal hepatic function, based on GMR [4, 33]: ~1.11 fold | AUC∞,unbound compared to normal hepatic function, based on GMR [4, 34]: ~1.99 fold
Structure (SMILES): Cc1cc(CO)nc(N2CC3CN(C(=O)c4c(F)cccc4-n4nccn4)CC3C2)n1 (stereo not shown) [M12]

From patent publication US20250082635A1 (Janssen Pharmaceutica NV, priority 2023, published 2025)
